Test results as given in PMC6437697 (Journal of Medicinal Chemistry, 2019).

Key:
Assay in all cases: KINOMEscan
Assay type in all cases: binding
Details in all cases: read-out: % control activity remaining
PKN1 = molecular target: T1, PKN1 (Homo sapiens, UniProt Q16512)
T1 construct: purchased Eurofins DiscoverX KINOMEscan

KIT = molecular target: T2, KIT (Homo sapiens, UniProt P10721)
T2 construct: purchased Eurofins DiscoverX KINOMEscan

FLT3 = molecular target: T3, FLT3 (Homo sapiens, UniProt P36888)
T3 construct: purchased Eurofins DiscoverX KINOMEscan
T3 sequence (P36888 27-993): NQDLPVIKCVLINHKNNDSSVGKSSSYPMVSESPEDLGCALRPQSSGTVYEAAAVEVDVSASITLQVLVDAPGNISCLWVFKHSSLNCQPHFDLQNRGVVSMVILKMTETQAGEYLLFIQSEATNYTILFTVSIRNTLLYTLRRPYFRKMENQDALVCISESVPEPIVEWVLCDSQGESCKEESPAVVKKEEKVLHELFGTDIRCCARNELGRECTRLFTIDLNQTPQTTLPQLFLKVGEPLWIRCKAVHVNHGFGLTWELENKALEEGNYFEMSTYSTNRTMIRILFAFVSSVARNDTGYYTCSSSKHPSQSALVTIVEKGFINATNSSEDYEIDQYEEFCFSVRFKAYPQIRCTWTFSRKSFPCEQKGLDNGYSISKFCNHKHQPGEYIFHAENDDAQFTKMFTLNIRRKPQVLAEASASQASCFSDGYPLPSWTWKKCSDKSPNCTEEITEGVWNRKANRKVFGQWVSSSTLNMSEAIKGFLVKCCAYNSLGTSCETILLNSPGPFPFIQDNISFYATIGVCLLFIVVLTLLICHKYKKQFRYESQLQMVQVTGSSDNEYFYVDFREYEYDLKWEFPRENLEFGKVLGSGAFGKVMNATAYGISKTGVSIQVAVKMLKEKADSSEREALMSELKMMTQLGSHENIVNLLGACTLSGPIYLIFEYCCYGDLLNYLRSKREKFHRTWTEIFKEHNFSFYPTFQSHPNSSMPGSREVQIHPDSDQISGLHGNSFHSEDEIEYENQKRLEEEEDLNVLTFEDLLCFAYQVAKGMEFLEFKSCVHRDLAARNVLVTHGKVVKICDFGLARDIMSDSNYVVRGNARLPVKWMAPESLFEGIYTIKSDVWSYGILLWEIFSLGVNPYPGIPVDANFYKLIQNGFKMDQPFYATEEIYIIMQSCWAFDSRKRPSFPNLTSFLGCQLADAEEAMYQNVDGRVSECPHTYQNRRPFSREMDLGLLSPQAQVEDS

ANKK1 = molecular target: T4, ANKK1 (Homo sapiens, UniProt Q8NFD2)
T4 construct: purchased Eurofins DiscoverX KINOMEscan
T4 sequence (Q8NFD2 1-765): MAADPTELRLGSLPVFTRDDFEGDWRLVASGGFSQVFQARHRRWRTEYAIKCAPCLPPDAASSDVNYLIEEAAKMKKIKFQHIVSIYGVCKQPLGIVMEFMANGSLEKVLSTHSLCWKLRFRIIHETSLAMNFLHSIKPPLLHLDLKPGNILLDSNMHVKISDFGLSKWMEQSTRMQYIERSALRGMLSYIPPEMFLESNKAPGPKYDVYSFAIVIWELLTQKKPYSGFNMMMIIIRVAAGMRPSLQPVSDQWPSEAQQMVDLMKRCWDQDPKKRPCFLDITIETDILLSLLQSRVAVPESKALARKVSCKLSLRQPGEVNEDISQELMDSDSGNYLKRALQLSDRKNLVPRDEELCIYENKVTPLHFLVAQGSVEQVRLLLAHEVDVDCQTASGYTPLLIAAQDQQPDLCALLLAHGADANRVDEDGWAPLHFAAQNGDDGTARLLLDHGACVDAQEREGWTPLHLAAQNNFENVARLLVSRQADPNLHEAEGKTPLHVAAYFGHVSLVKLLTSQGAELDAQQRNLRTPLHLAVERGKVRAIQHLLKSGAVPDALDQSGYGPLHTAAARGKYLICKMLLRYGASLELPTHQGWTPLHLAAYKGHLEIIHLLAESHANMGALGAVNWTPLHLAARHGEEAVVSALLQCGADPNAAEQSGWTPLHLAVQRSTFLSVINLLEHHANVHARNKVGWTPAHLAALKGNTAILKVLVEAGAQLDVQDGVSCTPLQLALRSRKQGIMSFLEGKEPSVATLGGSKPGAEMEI

SNARK = molecular target: T5, SNARK (Homo sapiens, UniProt Q9H093)
T5 construct: purchased Eurofins DiscoverX KINOMEscan
T5 sequence (Q9H093 1-628): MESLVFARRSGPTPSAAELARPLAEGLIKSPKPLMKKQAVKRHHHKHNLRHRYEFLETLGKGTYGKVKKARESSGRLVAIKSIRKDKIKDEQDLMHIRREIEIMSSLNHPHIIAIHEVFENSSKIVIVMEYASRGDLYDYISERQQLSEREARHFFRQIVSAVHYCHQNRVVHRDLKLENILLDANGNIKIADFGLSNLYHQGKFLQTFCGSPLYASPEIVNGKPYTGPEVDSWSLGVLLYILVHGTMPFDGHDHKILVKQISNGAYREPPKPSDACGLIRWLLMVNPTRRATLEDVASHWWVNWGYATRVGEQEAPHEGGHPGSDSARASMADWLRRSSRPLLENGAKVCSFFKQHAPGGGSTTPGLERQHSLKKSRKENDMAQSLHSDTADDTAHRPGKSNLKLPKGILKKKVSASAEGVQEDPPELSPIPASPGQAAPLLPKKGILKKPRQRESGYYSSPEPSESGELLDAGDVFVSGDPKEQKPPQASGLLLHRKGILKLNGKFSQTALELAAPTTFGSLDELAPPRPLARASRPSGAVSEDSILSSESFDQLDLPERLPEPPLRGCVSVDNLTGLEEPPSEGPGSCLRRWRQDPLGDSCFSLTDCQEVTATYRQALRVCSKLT

CDKL2 = molecular target: T6, CDKL2 (Homo sapiens, UniProt Q92772)
T6 construct: purchased Eurofins DiscoverX KINOMEscan
T6 sequence (Q92772 1-493): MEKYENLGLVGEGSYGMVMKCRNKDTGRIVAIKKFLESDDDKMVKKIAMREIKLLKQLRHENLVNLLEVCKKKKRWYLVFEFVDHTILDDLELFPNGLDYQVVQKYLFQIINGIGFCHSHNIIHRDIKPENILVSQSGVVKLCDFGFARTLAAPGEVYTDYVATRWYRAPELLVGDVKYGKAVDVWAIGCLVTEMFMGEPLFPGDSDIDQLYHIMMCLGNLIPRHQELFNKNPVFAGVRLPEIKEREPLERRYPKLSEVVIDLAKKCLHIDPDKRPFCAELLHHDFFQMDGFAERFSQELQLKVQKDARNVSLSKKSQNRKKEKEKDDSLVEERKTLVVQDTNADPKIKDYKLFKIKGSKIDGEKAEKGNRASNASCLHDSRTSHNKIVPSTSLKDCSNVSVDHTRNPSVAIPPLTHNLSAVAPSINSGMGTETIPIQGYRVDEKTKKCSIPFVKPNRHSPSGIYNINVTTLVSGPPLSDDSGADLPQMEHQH

T1 sequence (Q16512 whole entry): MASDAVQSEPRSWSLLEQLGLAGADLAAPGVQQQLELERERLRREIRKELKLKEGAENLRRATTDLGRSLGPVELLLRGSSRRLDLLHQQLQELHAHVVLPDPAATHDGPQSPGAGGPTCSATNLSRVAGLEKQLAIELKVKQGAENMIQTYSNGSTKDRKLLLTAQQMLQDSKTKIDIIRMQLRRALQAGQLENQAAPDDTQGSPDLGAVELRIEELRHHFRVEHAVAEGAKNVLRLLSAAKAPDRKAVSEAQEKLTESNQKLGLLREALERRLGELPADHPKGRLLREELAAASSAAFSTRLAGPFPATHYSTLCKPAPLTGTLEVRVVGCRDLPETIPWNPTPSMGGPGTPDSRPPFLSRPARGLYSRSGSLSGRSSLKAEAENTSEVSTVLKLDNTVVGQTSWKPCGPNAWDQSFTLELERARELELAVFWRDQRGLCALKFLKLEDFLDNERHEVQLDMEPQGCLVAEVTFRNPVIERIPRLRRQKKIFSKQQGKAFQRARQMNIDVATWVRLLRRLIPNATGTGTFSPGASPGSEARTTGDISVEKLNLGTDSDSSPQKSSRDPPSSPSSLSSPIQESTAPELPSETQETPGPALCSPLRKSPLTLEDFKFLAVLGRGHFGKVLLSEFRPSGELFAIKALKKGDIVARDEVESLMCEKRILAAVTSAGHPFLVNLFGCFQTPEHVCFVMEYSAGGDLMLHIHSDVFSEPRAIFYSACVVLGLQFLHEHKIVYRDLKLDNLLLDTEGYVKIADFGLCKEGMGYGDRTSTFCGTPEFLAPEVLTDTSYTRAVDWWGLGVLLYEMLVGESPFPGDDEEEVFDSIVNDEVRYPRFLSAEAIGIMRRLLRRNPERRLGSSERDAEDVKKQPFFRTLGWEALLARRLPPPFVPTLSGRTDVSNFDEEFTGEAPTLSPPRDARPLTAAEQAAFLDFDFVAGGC
T2 sequence (P10721 26-976): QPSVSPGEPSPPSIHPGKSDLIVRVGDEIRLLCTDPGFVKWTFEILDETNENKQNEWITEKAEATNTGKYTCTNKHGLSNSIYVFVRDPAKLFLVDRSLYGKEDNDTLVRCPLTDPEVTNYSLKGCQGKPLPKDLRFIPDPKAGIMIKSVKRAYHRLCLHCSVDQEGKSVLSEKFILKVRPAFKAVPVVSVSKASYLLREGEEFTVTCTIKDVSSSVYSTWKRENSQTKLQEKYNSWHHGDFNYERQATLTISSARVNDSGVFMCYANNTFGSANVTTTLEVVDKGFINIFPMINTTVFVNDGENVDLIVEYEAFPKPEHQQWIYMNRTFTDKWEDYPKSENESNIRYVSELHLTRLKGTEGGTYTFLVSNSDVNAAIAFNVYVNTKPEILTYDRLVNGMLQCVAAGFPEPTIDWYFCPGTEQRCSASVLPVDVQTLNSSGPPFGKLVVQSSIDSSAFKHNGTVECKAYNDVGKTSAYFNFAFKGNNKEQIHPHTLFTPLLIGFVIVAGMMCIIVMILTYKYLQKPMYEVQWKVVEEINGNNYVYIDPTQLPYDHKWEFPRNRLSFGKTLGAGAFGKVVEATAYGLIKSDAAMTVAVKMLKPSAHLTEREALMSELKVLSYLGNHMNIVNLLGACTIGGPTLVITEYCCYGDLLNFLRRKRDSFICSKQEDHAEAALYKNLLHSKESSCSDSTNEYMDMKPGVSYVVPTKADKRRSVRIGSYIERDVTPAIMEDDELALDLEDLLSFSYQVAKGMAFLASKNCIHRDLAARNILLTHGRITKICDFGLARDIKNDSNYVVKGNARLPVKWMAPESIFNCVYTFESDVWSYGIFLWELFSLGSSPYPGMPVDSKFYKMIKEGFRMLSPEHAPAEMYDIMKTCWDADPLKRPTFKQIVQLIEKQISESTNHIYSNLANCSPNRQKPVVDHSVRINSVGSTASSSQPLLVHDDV

| Structure (SMILES) | remaining binding at 1 µM (PKN1) | remaining binding at 1 µM (KIT) | remaining binding at 1 µM (FLT3) | remaining binding at 1 µM (ANKK1) | remaining binding at 1 µM (SNARK) | remaining binding at 1 µM (CDKL2) |
| --- | --- | --- | --- | --- | --- | --- |
| Clc1cc(NCC2CC2)c2ncc(-c3ccc4[nH]ncc4c3)n2n1 [compound 2, 6-Chloro-N-(cyclopropylmethyl)-3-(1H-indazol-5-yl)imidazo[1,2-b]pyridazin-8-amine] | 100% | 1.6% | 2.5% | 75% | 99% | 83% |
| O=C(CN1CCOCC1)N[C@H]1CC[C@H](Nc2cc(Cl)nn3c(-c4ccc5[nH]ncc5c4)cnc23)CC1 [compound 26] | 71% | 0% | 3% | 48% | 73% | 88% |
| CN1CCC(CNc2cc(Cl)nn3c(-c4cc5nc(Nc6ccccc6)[nH]c5cc4F)cnc23)CC1 [compound 31, 6-Chloro-3-(6-fluoro-2-(phenylamino)-1H-benzo[d]imidazol-5-yl)-N-((1-methylpiperidin-4-yl)methyl)imidazo[1,2-b]pyridazin-8-amine] | 91% | 68% | 83% | 100% | 88% | 81% |
